Results: US8907076B2, “Mycobacterial peptide deformylase” (Council of Scientific and Industrial Research, priority 2006, dated 2014)

Target: mPDF (Mycobacterium tuberculosis peptide deformylase) (Mycobacterium tuberculosis, UniProt P9WIJ3)
Settings: 500 mM, pre-incubation up to 2 h at 30° C., 70 ng protein/reaction
Method: The ability of mPDF to deformylate methionine was assessed in a spectrophotometric assay following the method described by Groche et al (Groche et al., Biochem. Biophys. Res. Commun. 246 342-346 1998) with slight modification. The assay was carried out in 50 μl reaction volume mPDF protein (usually 70 ng) in 1× assay buffer (100 mM phosphate buffer, pH 7.4 containing 100 μg/ml catalase) was incubated with the substrate (0 to 80 mM of N-formyl-Met-Ala, Sigma, USA) at 30° C. for 30 min. The reaction was terminated by addition of 50 μl of 4% HClO4 and further incubated (37° C. for 2 h) with TNBSA reagent (0.01% in 0.1M NaHCO3 buffer, pH 8.4). Following addition of 10% SDS (250 μl) and 1N HCl (125 μl), the highly chromogenic derivative generated due to reaction of primary amine with TNBSA was measured at 335 nm (Hermanson G, Bioconjugate techniques, Academic press, San Diego, Calif., 1996, pp, 112-113). The values obtained were corrected by subtracting the blank (all ingredients except mPDF enzyme) readings. Standard curves were prepared with known amounts (0-42.8 nmoles) of methionine.

Sequence of mPDF (Mycobacterium tuberculosis peptide deformylase) (P9WIJ3 whole entry): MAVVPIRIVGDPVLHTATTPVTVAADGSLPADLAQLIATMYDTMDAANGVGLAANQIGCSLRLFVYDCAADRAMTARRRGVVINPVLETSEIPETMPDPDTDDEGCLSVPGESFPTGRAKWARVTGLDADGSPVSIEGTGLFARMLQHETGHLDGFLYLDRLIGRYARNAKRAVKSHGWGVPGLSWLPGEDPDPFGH

Structure (SMILES): OO [H2O2, hydrogen peroxide]
- effect on the deformylating ability of mPDF compared to the untreated control: did not show any significant effect
